ChEMBL document CHEMBL3885881, “DrugMatrix”

Species: Rattus norvegicus
Experiment: DrugMatrix - Regimen: Daily Repeat
Type: toxicity, organism-based, Sprague-Dawley
Set-up: regimen Daily Repeat, gender Male, age 6-8 weeks
Conditions: in vivo, po, route oral GAVAGE, vehicle 100 % WATER; for ABSOLUTE BASOPHIL / ABSOLUTE EOSINOPHIL / ABSOLUTE LYMPHOCYTE / ABSOLUTE MONOCYTE / ABSOLUTE SEGMENTED NEUTROPHIL / BASOPHIL / EOSINOPHIL / ERYTHROCYTE COUNT / HEMATOCRIT / HEMOGLOBIN / LEUKOCYTE COUNT / LYMPHOCYTE / MEAN CORPUSCULAR HEMOGLOBIN / MEAN CORPUSCULAR HEMOGLOBIN CONCENTRATION / MEAN CORPUSCULAR VOLUME / MONOCYTE / NEUTROPHIL / NUCLEATED RED BLOOD CELLS / PLATELET COUNT: tissue Blood; for ALANINE AMINOTRANSFERASE / ALBUMIN / ALKALINE PHOSPHATASE / ASPARTATE AMINOTRANSFERASE / BLOOD UREA NITROGEN / CARBON DIOXIDE / CHLORIDE / CHOLESTEROL / CREATINE PHOSPHOKINASE / CREATININE / GLUCOSE / LACTATE DEHYDROGENASE / LIPASE / PHOSPHORUS / POTASSIUM / SODIUM / TOTAL BILIRUBIN / TOTAL PROTEIN / URIC ACID: tissue Plasma
[1] = 0.07 mg/kg, 120 h, dose level Low, time 5 day
[2] = 0.5 mg/kg, 72 h, dose level High, time 3 day
[3] = 0.5 mg/kg, 120 h, dose level High, time 5 day

## Cc1cc(C(C)(C)C)c(O)c(C)c1CC1=NCCN1 [OXYMETAZOLINE]
[1]
  ABSOLUTE BASOPHIL: 0 CELLS/uL
  ABSOLUTE EOSINOPHIL: 196 CELLS/uL
  ABSOLUTE LYMPHOCYTE: 15823.67 CELLS/uL
  ABSOLUTE MONOCYTE: 436.67 CELLS/uL
  ABSOLUTE SEGMENTED NEUTROPHIL: 2110.33 CELLS/uL
  BASOPHIL: 0%
  EOSINOPHIL: 1%
  ERYTHROCYTE COUNT: 5.33 x10E6/uL
  HEMATOCRIT: 33.03%
  HEMOGLOBIN: 13.6 G/DL
  LEUKOCYTE COUNT: 18.57 x10E3/uL
  LYMPHOCYTE: 85.33%
  MEAN CORPUSCULAR HEMOGLOBIN: 25.53 pg
  MEAN CORPUSCULAR HEMOGLOBIN CONCENTRATION: 41.13 G/DL
  MEAN CORPUSCULAR VOLUME: 61.93 fL
  MONOCYTE: 2.33%
  NEUTROPHIL: 11.33%
  NUCLEATED RED BLOOD CELLS: 0 /100WBC
  PLATELET COUNT: 1316.33 x10E3/uL
  ALANINE AMINOTRANSFERASE: 45.33 u/L
  ALBUMIN: 4.4 G/DL
  ALKALINE PHOSPHATASE: 411.67 u/L
  ASPARTATE AMINOTRANSFERASE: 82 u/L
  BLOOD UREA NITROGEN: 13 mg/dL
  CARBON DIOXIDE: 29 mmol/L
  CHLORIDE: 101.67 MEQ/L
  CHOLESTEROL: 75.33 mg/dL
  CREATINE PHOSPHOKINASE: 214.67 u/L
  CREATININE: 0.21 mg/dL
  GLUCOSE: 167 mg/dL
  LACTATE DEHYDROGENASE: 203.67 u/L
  LIPASE: 10.67 u/L
  PHOSPHORUS: 11.53 mg/dL
  POTASSIUM: 6.21 MEQ/L
  SODIUM: 142.97 MEQ/L
  TOTAL BILIRUBIN: 0.13 mg/dL
  TOTAL PROTEIN: 5.97 G/DL
  URIC ACID: 1.73 mg/dL
[2]
  ABSOLUTE BASOPHIL: 0 CELLS/uL
  ABSOLUTE EOSINOPHIL: 0 CELLS/uL
  ABSOLUTE LYMPHOCYTE: 15583 CELLS/uL
  ABSOLUTE MONOCYTE: 59.33 CELLS/uL
  ABSOLUTE SEGMENTED NEUTROPHIL: 1491 CELLS/uL
  BASOPHIL: 0%
  EOSINOPHIL: 0%
  ERYTHROCYTE COUNT: 5.61 x10E6/uL
  HEMATOCRIT: 35.17%
  HEMOGLOBIN: 13.97 G/DL
  LEUKOCYTE COUNT: 17.13 x10E3/uL
  LYMPHOCYTE: 91%
  MEAN CORPUSCULAR HEMOGLOBIN: 24.9 pg
  MEAN CORPUSCULAR HEMOGLOBIN CONCENTRATION: 39.73 G/DL
  MEAN CORPUSCULAR VOLUME: 62.7 fL
  MONOCYTE: 0.33%
  NEUTROPHIL: 8.67%
  NUCLEATED RED BLOOD CELLS: 0 /100WBC
  PLATELET COUNT: 1369.67 x10E3/uL
  ALANINE AMINOTRANSFERASE: 42.67 u/L
  ALBUMIN: 3.6 G/DL
  ALKALINE PHOSPHATASE: 345.33 u/L
  ASPARTATE AMINOTRANSFERASE: 79.67 u/L
  BLOOD UREA NITROGEN: 16 mg/dL
  CARBON DIOXIDE: 25.67 mmol/L
  CHLORIDE: 105 MEQ/L
  CHOLESTEROL: 70.67 mg/dL
  CREATINE PHOSPHOKINASE: 215.33 u/L
  CREATININE: 0.14 mg/dL
  GLUCOSE: 166.67 mg/dL
  LACTATE DEHYDROGENASE: 174 u/L
  LIPASE: 9 u/L
  PHOSPHORUS: 10.3 mg/dL
  POTASSIUM: 5.92 MEQ/L
  SODIUM: 144.53 MEQ/L
  TOTAL BILIRUBIN: 0.2 mg/dL
  TOTAL PROTEIN: 5.43 G/DL
  URIC ACID: 1.73 mg/dL
[3]
  ABSOLUTE BASOPHIL: 0 CELLS/uL
  ABSOLUTE EOSINOPHIL: 250.33 CELLS/uL
  ABSOLUTE LYMPHOCYTE: 17058 CELLS/uL
  ABSOLUTE MONOCYTE: 0 CELLS/uL
  ABSOLUTE SEGMENTED NEUTROPHIL: 1425 CELLS/uL
  BASOPHIL: 0%
  EOSINOPHIL: 1.33%
  ERYTHROCYTE COUNT: 5.31 x10E6/uL
  HEMATOCRIT: 33.13%
  HEMOGLOBIN: 13.6 G/DL
  LEUKOCYTE COUNT: 18.73 x10E3/uL
  LYMPHOCYTE: 90.33%
  MEAN CORPUSCULAR HEMOGLOBIN: 25.67 pg
  MEAN CORPUSCULAR HEMOGLOBIN CONCENTRATION: 41.03 G/DL
  MEAN CORPUSCULAR VOLUME: 62.53 fL
  MONOCYTE: 0%
  NEUTROPHIL: 8.33%
  NUCLEATED RED BLOOD CELLS: 0 /100WBC
  PLATELET COUNT: 1420 x10E3/uL
  ALANINE AMINOTRANSFERASE: 47.33 u/L
  ALBUMIN: 3.93 G/DL
  ALKALINE PHOSPHATASE: 346 u/L
  ASPARTATE AMINOTRANSFERASE: 73 u/L
  BLOOD UREA NITROGEN: 14.33 mg/dL
  CARBON DIOXIDE: 30 mmol/L
  CHLORIDE: 104 MEQ/L
  CHOLESTEROL: 72.33 mg/dL
  CREATINE PHOSPHOKINASE: 164.33 u/L
  CREATININE: 0.11 mg/dL
  GLUCOSE: 141 mg/dL
  LACTATE DEHYDROGENASE: 161 u/L
  LIPASE: 10 u/L
  PHOSPHORUS: 10.57 mg/dL
  POTASSIUM: 6.08 MEQ/L
  SODIUM: 142.83 MEQ/L
  TOTAL BILIRUBIN: 0.1 mg/dL
  TOTAL PROTEIN: 5.37 G/DL
  URIC ACID: 1.4 mg/dL
